Data published in patent US20040138193A1, “Oestrogen fatty acid monoester as a hypolipidaemic and antidiabetic agent” (priority 2001, published 2004).

Experiments:
Zucker fa/fa rat = assay: Plasma parameters after 10 days of daily oral gavage in Zucker fa/fa rats (type 2 diabetes model); assay type: in vivo; settings: for plasma 3-hydroxybutyrate / plasma non-esterified fatty acids / plasma glucose / plasma insulin / plasma total cholesterol / plasma triacylglycerols: 10 days
Protocol: A study was carried out using the Zucker fa/fa rat as experimental animal model for type 2 diabetes. In these rats a marked insulin resistance is known; their circulating glucose levels are somewhat higher than in normal rats, but their insulin levels are much higher and show marked hypertriacylglycerolemia and hypercholesterolemia. Four groups of adult Zucker fa/fa rats were used, two groups of 6 male rats each and two groups of 6 female rats each. For each sex, the first group was used as control and the other was treated with the drug. All rats were kept under standard housing conditions, with free access to water and pellet food. The animals received a daily gavage of 0.2 ml of sunflower oil by means of a stomach tube. In the treated-rat groups, the oil contained enough oleoyl-estrone dissolved to provide a daily dose of 10 micromol per kg of rat weight. After 10 days of daily gavages, the rats were killed and their blood was recovered, being used to obtain plasma by centrifugation. Plasma samples were used for the analysis of glucose, total cholesterol and triacylglycerols by means of a dry-strip procedure (Spotchem, Menarini, Firenze, Italy), the levels of 3-hydroxybutyrate were measured with the kit 907979 from Boehringer Mannheim (Mannheim, Germany), and non-esterified fatty acids with the kit 1383175 from the same company. Insulin levels were measured through radioimmunoassay (rat insulin kit, Amersham, Amersham, United Kingdom).

[1] = system: genetically obese adult female Zucker rats (genotype fa/fa); assay: Plasma lipoproteinogram (polyacrylamide gel electrophoresis), obese rats; assay type: in vivo, rat; settings: 10 micromols per kg daily, 10 days
Protocol: FIG. 2 is a lipoproteinogram analogous to the one of FIG. 1, but using obese rats (Zucker fa/fa).
(§1) Since treatment with oleoyl-estrone deeply modifies the plasma lipids of rats, an experiment was carried out to determine whether the oral administration of oleoyl-estrone modifies the plasma lipidogram of lean and genetically obese rats. Two groups of animals were used: (1) normal-weight adult female Zucker rats (genotype Fa/?), and (2) genetically obese adult female Zucker rats (genotype fa/fa). In the first group one rat was killed to obtain a sample of blood (intact control); in the second group (obese rats), two intact controls were killed and their blood recovered. All the remaining rats were kept under standard housing conditions, with free access to food and water; the rats receivid a daily gavage of 0.2 ml of sunflower oil by means of a stomach tube; in three rats form each group, the oil was supplemented with enough oleoyl-estrone to achieve a daily dose of 10 micromols per kg of rat weight. After 10 days of treatment, the rats were killed, and their blood was recovered. All blood samples were centrifuged to obtain plasma; plasma proteins were analysed by means of polyacrylamide gel electroforesis (kit Lipofilm, Sebia, Issy les Molineaux, France), lipids were stained with Sudan black.

[2] = system: normal-weight adult female Zucker rats (genotype Fa/?); assay: Plasma lipoproteinogram (polyacrylamide gel electrophoresis), normal-weight rats; assay type: in vivo, rat; settings: 10 micromols per kg daily, 10 days
Protocol: FIG. 1 is a lipoproteinogram of plasma from normal-weight rats (Zucker Fa/?), showing the effect of oleoyl-estrone on lipoprotein distribution. I=intact; C=control; T=treated with oleoyl-estrone; HDL=high-density lipoproteins; LDL=low-density lipoproteins; VLDL=very low-density lipoproteins.
as §1, with “All the remaining rats were kept under standard housing conditions, with free access to food and water; the rats receivid a daily gavage of 0.2 ml of sunflower oil by means of a stomach tube; in three rats form each group, the oil was supplemented with enough oleoyl-estrone to achieve a daily dose of 10 micromols per kg of rat weight. After 10 days of treatment, the rats were killed, and their blood was recovered.” left out

obese rats = assay: Lipoprotein separation by ultracentrifugation and lipid composition analysis, obese rats; assay type: in vivo, rat; settings: 10 μmol/kg daily, vs controls
Excerpt: FIG. 4 is analogous to FIG. 3, but for obese rats.
(§2) Lipoproteins in fresh plasma were fractionated by differential ultracentrifugation in known density media obtained through the addition of KBr. […] These fractions were used for the analysis of protein and lipidic components, and for the estimation of particle size.
(§3) Whole plasma, lipoprotein fractions and LPdp were used for the analysis of protein and lipid content. Total protein was estimated with the Bradford method (cf. M. M. Bradford, Anal. Biochem. 1976, vol. 72, pp. 248-254). Total cholesterol was measured in saline with a high-performance cholesterol kit. Triacylglycerol concentrations were measured with a commercial kit and the results were corrected for free glycerol. Phospholipid was quantified by a choline-based method. […] Recoveries for all plasma components (i.e. deviations from the values in whole plasma and those derived from the sum of its content in lipoprotein fractions) were lowest for triacylglycerols (88±3%) and highest for protein (92±3%). Sudan black-prestained serum samples were sepparated by polyacrylamide gel electrophoresis. Separation of lipoprotein classes through centrifugation allowed a detailed analysis of lipoprotein composition as shown in FIGS. 3 and 4.

lean rats = assay: Lipoprotein separation by ultracentrifugation and lipid composition analysis, lean rats; assay type: in vivo, rat; settings: 10 μmol/kg daily, vs controls
Excerpt: Codes in bars are: triacylglycerols=white; phospholipids=lines; cholesterol=dots.
as §2, §3

[3] = Zucker fa/fa rats, oral treatment vs controls
[4] = Zucker fa/fa rats, oral treatment vs controls, P<0.05
[5] = female obese Zucker fa/fa rats, 10 μmol/kg · d oral gavage
[6] = female obese Zucker fa/fa rats, 10 mol/kg · d oral gavage
[7] = male obese Zucker fa/fa rats, 10 μmol/kg · d oral gavage

**Q.** For `CCCCCCCC/C=C\CCCCCCCC(=O)Oc1ccc2c(c1)CC[C@@H]1[C@@H]2CC[C@]2(C)C(=O)CC[C@@H]12` [oleoyl-estrone], which “change in 3-hydroxybutyrate” value (Zucker fa/fa rat; [3]) is on record?
**A.** The value was “no changes”.

**Q.** What about the “change in insulin levels” value (Zucker fa/fa rat; [3]) of the same molecule?
**A.** Its value is “marked decrease”.

**Q.** What about the “change in non-esterified fatty acids” value (Zucker fa/fa rat; [3]) of the same molecule?
**A.** The value was “no changes”.

**Q.** What about the “change in plasma concentration of glucose” value (Zucker fa/fa rat; [4]) of the same molecule?
**A.** Its value is “significant decreases”.

**Q.** And the “change in plasma concentration of total cholesterol” value (Zucker fa/fa rat; [4])?
**A.** The value was “significant decreases”.

**Q.** What about the “change in plasma concentration of triacylglycerols” value (Zucker fa/fa rat; [4]) of the same molecule?
**A.** The value was “significant decreases”.

**Q.** And the “plasma 3-hydroxybutyrate” value (Zucker fa/fa rat; [5])?
**A.** Its value is 187 ± 26 µM.

**Q.** What about the “plasma non-esterified fatty acids” value (Zucker fa/fa rat; [5]) of the same molecule?
**A.** The value was 642 ± 52 µM.

**Q.** What about the plasma glucose (Zucker fa/fa rat; [6]) of the same molecule?
**A.** Its plasma glucose is 4.91 ± 0.17 mM.

**Q.** What about the plasma insulin (Zucker fa/fa rat; [6]) of the same molecule?
**A.** Its plasma insulin is 1.78 ± 0.21 nM.

**Q.** And the plasma total cholesterol (Zucker fa/fa rat; [6])?
**A.** Its plasma total cholesterol is 1.59 ± 0.29 mM.

**Q.** And the plasma triacylglycerols (Zucker fa/fa rat; [6])?
**A.** The plasma triacylglycerols was 1.80 ± 0.17 mM.

**Q.** And the “plasma 3-hydroxybutyrate” value (Zucker fa/fa rat; [7])?
**A.** Its value is 281 ± 31 µM.

**Q.** What about the plasma glucose (Zucker fa/fa rat; [7]) of the same molecule?
**A.** Its plasma glucose is 6.14 ± 0.13 mM.

**Q.** What about the plasma insulin (Zucker fa/fa rat; [7]) of the same molecule?
**A.** Its plasma insulin is 1.11 ± 0.12 nM.

**Q.** And the “plasma non-esterified fatty acids” value (Zucker fa/fa rat; [7])?
**A.** The value was 720 ± 110 µM.

**Q.** What about the plasma total cholesterol (Zucker fa/fa rat; [7]) of the same molecule?
**A.** The plasma total cholesterol was 1.77 ± 0.26 mM.

**Q.** And the plasma triacylglycerols (Zucker fa/fa rat; [7])?
**A.** The plasma triacylglycerols was 1.88 ± 0.19 mM.

**Q.** What about the “lipoprotein pattern in lipoproteinogram” value [1] of the same molecule?
**A.** The value was “this same pattern is repeated, but there is an additional wide band between the LDL and VLDL zones”.

**Q.** And the “change of VLDLs in lipoproteinogram” value [2]?
**A.** Its value is “marked increase”.

**Q.** And the “change of high density lipoproteins in lipoproteinogram” value [2]?
**A.** The value was “marked reduction”.

**Q.** What about the “change of HDL components” value (obese rats) of the same molecule?
**A.** Its value is “all components decreased again with treatment, except for triacylglycerols”.

**Q.** What about the “change of LDL components” value (obese rats) of the same molecule?
**A.** The value was “only tricylglycerol levels decreased”.

**Q.** What about the “change of chylomicra and VLDL components” value (obese rats) of the same molecule?
**A.** Its value is “marked decreases”.

**Q.** What about the “change of total phospholipid levels in lipoprotein-depleted plasma” value (obese rats) of the same molecule?
**A.** Its value is “decrease”.

**Q.** And the “levels of all lipid classes in whole plasma” value (obese rats)?
**A.** The value was “markedly lower levels”.

**Q.** And the “change in lipoprotein composition” value (lean rats)?
**A.** Its value is “little change”.

**Q.** What about the “change of cholesterol in the HDL fraction” value (lean rats) of the same molecule?
**A.** Its value is “decreased most”.

**Q.** And the “change of total phospholipid levels in lipoprotein-depleted plasma” value (lean rats)?
**A.** The value was “decrease”.
